Reference: ChEMBL document CHEMBL2057151, “Synthesis and structure-activity relationships of pyrido[3,2-b]pyrazin-3(4H)-ones and pteridin-7(8H)-ones as corticotropin-releasing factor-1 receptor antagonists” (Bioorg Med Chem Lett, 2012)

How the values were obtained:
[1] = molecular target: T1, Corticotropin-releasing factor receptor 1 (Rattus norvegicus, UniProt P35353); assay: Antagonist activity at rat CFR1R; type: functional
T1 sequence (P35353 whole entry): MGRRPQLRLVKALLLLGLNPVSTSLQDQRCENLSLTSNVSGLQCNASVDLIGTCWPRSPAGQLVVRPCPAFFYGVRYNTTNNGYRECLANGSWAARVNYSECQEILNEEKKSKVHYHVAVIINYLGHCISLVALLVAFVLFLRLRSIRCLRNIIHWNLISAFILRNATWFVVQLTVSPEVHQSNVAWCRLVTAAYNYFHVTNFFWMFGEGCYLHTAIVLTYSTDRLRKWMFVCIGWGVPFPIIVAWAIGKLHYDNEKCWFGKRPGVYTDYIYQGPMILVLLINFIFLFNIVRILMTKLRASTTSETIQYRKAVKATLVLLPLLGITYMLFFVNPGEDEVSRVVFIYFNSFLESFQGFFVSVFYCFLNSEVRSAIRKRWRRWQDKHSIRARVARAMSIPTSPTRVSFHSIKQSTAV

[2] = Fraction unbound in rat plasma; type: ADME, cell-free
[3] = Clearance in rat at 0.5 mg/kg, iv and 1.5 mg/kg, po; type: ADME, organism-based; details: in vivo
[4] = Volume of distribution at steady state in rat at 0.5 mg/kg, iv and 1.5 mg/kg, po; type: ADME, organism-based; details: in vivo, read-out: Vdss
[5] = system: Rattus norvegicus; assay: AUC in rat at 1.5 mg/kg, po; type: ADME, organism-based, Plasma; design: dose 1.5 mg/kg, route oral; details: in vivo
[6] = Half life in rat at 0.5 mg/kg, iv; type: ADME, organism-based; design: dose 0.5 mg/kg, route intravenous; details: in vivo

SMILES	IC50 [1]	fraction unbound [2]	also measured
COc1ccc(-c2ncnc3c2nc(C)c(=O)n3C(C2CC2)C2CC2)c(C)c1	37 nM	0.014	–
CCC(COC)n1c(=O)c(C)nc2c(-c3cc(F)c(OC)cc3Cl)ncnc21 (stereo not given)	16 nM	0.014	–
CC[C@@H](C1CC1)n1c(=O)c(C)nc2c(-c3ccc(Cl)cc3Cl)nccc21	55 nM	–	–
COc1ccc(-c2ccnc3c2nc(C)c(=O)n3C(C2CC2)C2CC2)c(C)c1	3 nM	0.03	–
CCC(COC)n1c(=O)c(C)nc2c(-c3cc(F)c(OC)cc3Cl)ccnc21 (stereo not given)	2.1 nM	0.03	–
COCC(C1CC1)n1c(=O)c(C)nc2c(-c3cc(F)c(OC)cc3Cl)ccnc21 (stereo not given)	1.5 nM	< 0.002	–
CCC(COC)n1c(=O)c(C)nc2c(-c3cc(Cl)c(OC)cc3C)ccnc21 (stereo not given)	–	–	clearance [3]: 9.5 mL/min/kg; Vd [4]: 1.8 L/kg; AUC [5]: 8.5 µM·h; half-life [6]: 5.8 h
Cc1nc2c(-c3ccc(Cl)cc3Cl)ccnc2n(C(C)C(C)C)c1=O (stereo not given)	380 nM	–	–
CC[C@H](C1CC1)n1c(=O)c(C)nc2c(-c3ccc(Cl)cc3Cl)ccnc21	8.2 nM	–	–
CC[C@@H](C1CC1)n1c(=O)c(C)nc2c(-c3ccc(Cl)cc3Cl)ccnc21	7.4 nM	0.002	–
CCCC(C1CC1)n1c(=O)c(C)nc2c(-c3ccc(Cl)cc3Cl)ccnc21 (stereo not given)	4.3 nM	–	–
COCC(C)n1c(=O)c(C)nc2c(-c3ccc(Cl)cc3Cl)ccnc21 (stereo not given)	63 nM	–	–
CC[C@@H](C1CC1)n1c(=O)c(C)nc2c(-c3ccc(C(F)(F)F)cc3Cl)ccnc21	21 nM	–	–
CC[C@@H](C1CC1)n1c(=O)c(C)nc2c(-c3ccc(OC)cc3Cl)ccnc21	4 nM	–	–
CC[C@H](C1CC1)n1c(=O)c(C)nc2c(-c3cc(Cl)c(OC)cc3C)ccnc21	4.5 nM	–	–
CC[C@H](C1CC1)n1c(=O)c(C)nc2c(-c3cc(F)c(OC)cc3Cl)ccnc21	1.7 nM	–	–
CCC(C1CC1)n1c(=O)c(C)nc2c(-c3cc(C#N)c(C)cc3Cl)ccnc21 (stereo not given)	4.8 nM	–	–
CC[C@H](C1CC1)n1c(=O)c(C)nc2c(-c3cc(C)c(OC)cc3C)ccnc21	130 nM	–	–
CC[C@H](COC)n1c(=O)c(C)nc2c(-c3ccc(Cl)cc3Cl)ncnc21	97 nM	0.022	–
CCC(C1CC1)n1c(=O)c(C)nc2c(-c3cc(Cl)c(OC(F)F)cc3C)ncnc21 (stereo not given)	38 nM	0.004	–
CCC(C1CC1)n1c(=O)c(C)nc2c(-c3cc(C)c(C)cc3C)ccnc21 (racemic)	5.2 nM	–	–
CCC(C1CC1)n1c(=O)c(C)nc2c(-c3cc(C)c(C)c(C)c3C)ccnc21 (racemic)	340 nM	–	–
CCC(C1CC1)n1c(=O)c(C)nc2c(-c3cc(C)c(OC)cc3Cl)ccnc21 (racemic)	0.68 nM	< 0.002	–
CCOc1cc(Cl)c(-c2ccnc3c2nc(C)c(=O)n3C(CC)C2CC2)cc1C (racemic)	2 nM	–	–
CCC(C1CC1)n1c(=O)c(C)nc2c(-c3cc(C)c(OC(C)C)cc3Cl)ccnc21 (racemic)	15 nM	–	–
CCC(C1CC1)n1c(=O)c(C)nc2c(-c3cc(Cl)c(OC(F)F)cc3C)ccnc21 (racemic)	9.7 nM	0.003	–
CCC(C1CC1)n1c(=O)c(C)nc2c(-c3cc(F)c(N(C)C)cc3Cl)ccnc21 (racemic)	0.82 nM	< 0.002	–
CCC(C1CC1)n1c(=O)c(C)nc2c(-c3cc(C)c(Cl)cc3OC)ccnc21 (racemic)	1.1 nM	–	–
CCC(C1CC1)n1c(=O)c(C)nc2c(-c3cc(Cl)c(OC)cc3OC)ccnc21 (racemic)	3.4 nM	–	–

Second part, led by results:

IC50 [1]	fraction unbound [2]	SMILES	also measured
7.5 nM	0.028	COCC(C1CC1)n1c(=O)c(C)nc2c(-c3cc(F)c(OC)cc3Cl)ncnc21 (stereo not given)	clearance [3]: 33.7 mL/min/kg; Vd [4]: 2.05 L/kg; AUC [5]: 0.3 µM·h; half-life [6]: 2 h
150 nM	–	CC[C@H](COC)n1c(=O)c(C)nc2c(-c3ccc(Cl)cc3Cl)nccc21	–
3500 nM	–	Cc1nc2c(-c3ccc(Cl)cc3Cl)ccnc2n(CC(C)C)c1=O	–
62 nM	–	CCCC(C)n1c(=O)c(C)nc2c(-c3ccc(Cl)cc3Cl)ccnc21 (stereo not given)	–
4 nM	0.004	CC[C@H](COC)n1c(=O)c(C)nc2c(-c3ccc(Cl)cc3Cl)ccnc21	–
74 nM	–	CC[C@@H](COC)n1c(=O)c(C)nc2c(-c3ccc(Cl)cc3Cl)ccnc21	–
7.3 nM	–	CC[C@@H](C1CC1)n1c(=O)c(C)nc2c(-c3ccc(OC(F)F)cc3Cl)ccnc21	–
4.5 nM	–	CC[C@H](C1CC1)n1c(=O)c(C)nc2c(-c3ccc(OC)cc3Cl)ccnc21	–
9.4 nM	–	CC[C@H](C1CC1)n1c(=O)c(C)nc2c(-c3cc(F)c(OC)cc3C)ccnc21	–
11 nM	–	CC[C@H](C1CC1)n1c(=O)c(C)nc2c(-c3ccc(OC)cc3C)ccnc21	–
76 nM	–	CC[C@H](C1CC1)n1c(=O)c(C)nc2c(-c3ccc(OC)nc3C)ccnc21	–
15 nM	–	CC[C@H](C1CC1)n1c(=O)c(C)nc2c(-c3cc(C)c(OC)nc3C)ccnc21	–
24 nM	0.004	CC[C@@H](C1CC1)n1c(=O)c(C)nc2c(-c3ccc(Cl)cc3Cl)ncnc21	–
8.8 nM	–	CCC(C1CC1)n1c(=O)c(C)nc2c(-c3ccc(C)cc3C)ccnc21 (racemic)	–
52 nM	–	CCC(C1CC1)n1c(=O)c(C)nc2c(-c3cc(F)c(OC)cc3F)ccnc21 (racemic)	–
